Experimental data taken from patent EP1201661A1, “HETEROAROMATIC RING COMPOUNDS” (Sumitomo Pharmaceuticals Company, Limited, priority 1999, dated 2001).

System: adjuvant-induced arthritis
Assay: Inhibition of adjuvant-induced arthritis (hind paw swelling)
Type: in vivo, Male SD rats
Details: 5 consecutive days from day 17 after adjuvant
Description: Inhibition of adjuvant-induced arthritis
Male SD rats were used as test subjects. Heat-kllled Mycobacterium butyricum suspended in liquid paraffin in a concentration of 0.5% was subcutaneously injected into the right hind paw of each rat. After 17 days, animals showing the clear onset of secondary inflammation also in the left hind paw were selected, and each compound of the present invention suspended in a 0.5% methyl cellulose solution was orally administered to the animals for 5 consecutive days. The volume of each hind paw at the completion of the administration was compared with that at the beginning of the administration, and the swelling-inhibitory effect was evaluated by the difference between them.

[1] = oral dose 50 mg/kg, volume at completion vs beginning of administration

## CNC(=Nc1cc(C(C)c2cccc(C(=O)c3ccccc3)c2)ns1)N1CCOCC1.Cl (stereo not shown) [Experiment 1, N'-{3-[1-(3-Benzoylphenyl)ethyl]-5-isothiazolyl}-N-methyl-4-morpholine carboximidamide hydrochloride]
[1]
  Increase of edema volume (ml) Injected paw: 0.12 mL
  Increase of edema volume (ml) Non-injected paw: 0.02 mL

## CC(c1ccc(-c2ccccc2)c(F)c1)c1cc(N=C(N)N2CCOCC2)n(C)n1.Cl.Cl (stereo not shown) [Experiment 49, N'-{3-[1-(2-Fluoro[1,1'-biphenyl]-4-yl)ethyl]-1-methyl-1H-pyrazol-5-yl}-4-morpholinecarboximidamide dihydrochloride]
[1]
  Increase of edema volume (ml) Injected paw: -0.24 mL
  Increase of edema volume (ml) Non-injected paw: -0.17 mL

## CC(c1cccc(C(=O)c2ccccc2)c1)c1nc(N=C(N(C)C)N2CCOCC2)ns1.Cl (stereo not shown) [Experiment 73, N'-{5-[1-(3-Benzoylphenyl)ethyl]-1,2,4-thiadiazol-3-yl}-N,N-dimethyl-4-morpholinecarboximidamide hydrochloride]
[1]
  Increase of edema volume (ml) Injected paw: -0.95 mL
  Increase of edema volume (ml) Non-injected paw: -0.78 mL

## CCNC(=Nc1nc(C(C)c2cccc(C(=O)c3ccccc3)c2)n[nH]1)N1CCOCC1.Cl (stereo not shown) [Experiment 75, N'-{3-[1-(3-Benzoylphenyl)ethyl]-1H-1,2,4-triazol-5-yl}-N-ethyl-4-morpholinecarboximidamide hydrochloride]
[1]
  Increase of edema volume (ml) Injected paw: -1.08 mL
  Increase of edema volume (ml) Non-injected paw: -0.53 mL

## CC(c1cccc(C(=O)c2ccccc2)c1)c1n[nH]c(N)n1.Cl (stereo not shown) [Experiment 320, {3-[1-(5-Amino-1H-1,2,4-triazol-3-yl)ethyl]phenyl}(phenyl)methanone hydrochloride]
Oral dose 25 mg/kg
  Increase of edema volume (ml) Injected paw: -1.20 mL
  Increase of edema volume (ml) Non-injected paw: -0.53 mL
